From PubChem BioAssay (NCI)
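48-hour exposure; five concentrations; linearly interpolated endpoints. TGI denotes the concentration required for complete inhibition of growth.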

Assays:
Test in all cases: NCI tumour cell line growth inhibition, 48 h
LOX IMVI melanoma = test system: LOX IMVI melanoma
M14 melanoma = test system: M14 melanoma
SR leukemia = test system: SR leukemia
K-562 leukemia = test system: K-562 leukemia
A498 renal = test system: A498 renal
SNB-19 CNS = test system: SNB-19 CNS
A549 NSCLC = test system: A549 NSCLC
SNB-75 CNS = test system: SNB-75 CNS
RPMI-8226 leukemia = test system: RPMI-8226 leukemia
HCC-2998 colon = test system: HCC-2998 colon
HCT-15 colon = test system: HCT-15 colon
OVCAR-8 ovarian = test system: OVCAR-8 ovarian
IGROV1 ovarian = test system: IGROV1 ovarian
OVCAR-5 ovarian = test system: OVCAR-5 ovarian
EKVX NSCLC = test system: EKVX NSCLC
DU-145 prostate = test system: DU-145 prostate
SK-MEL-28 melanoma = test system: SK-MEL-28 melanoma

For CC(C)/C=N\n1c(N)c(C#N)c(C#N)c1C(C)C, the TGI (LOX IMVI melanoma) was 97.8 µM, the TGI (M14 melanoma) was greater than 100 µM and the TGI (SR leukemia) was greater than 100 µM. For the same compound, the TGI (K-562 leukemia) was greater than 100 µM, the TGI (A498 renal) was 69.5 µM and the TGI (SNB-19 CNS) was greater than 100 µM. For the same compound, the TGI (A549 NSCLC) was greater than 100 µM, the TGI (SNB-75 CNS) was 40.4 µM and the TGI (RPMI-8226 leukemia) was 75.2 µM. It also gave a TGI (HCC-2998 colon) of 36.4 µM, a TGI (HCT-15 colon) greater than 100 µM and a TGI (OVCAR-8 ovarian) of 63.7 µM. It also gave a TGI (IGROV1 ovarian) of 77.8 µM, a TGI (OVCAR-5 ovarian) greater than 100 µM and a TGI (EKVX NSCLC) of 72.8 µM. The TGI (DU-145 prostate) was greater than 100 µM.

With CN(C)CCO/N=C1/C=C2CC[C@H]3[C@@H]4CC[C@H](O)[C@@]4(C)CC[C@@H]3[C@@]2(C)CC1 the TGI (LOX IMVI melanoma) was 60.2 µM, the TGI (SK-MEL-28 melanoma) was 35.1 µM and the TGI (M14 melanoma) was greater than 37 µM. For the same compound, the TGI (SR leukemia) was 19.6 µM, the TGI (K-562 leukemia) was 56.8 µM and the TGI (A498 renal) was 33.7 µM. For the same compound, the TGI (SNB-19 CNS) was greater than 100 µM, the TGI (A549 NSCLC) was greater than 65.2 µM and the TGI (SNB-75 CNS) was 10.4 µM. For the same compound, the TGI (RPMI-8226 leukemia) was greater than 74.9 µM, the TGI (HCC-2998 colon) was 28.1 µM and the TGI (HCT-15 colon) was 47.7 µM. The TGI (OVCAR-8 ovarian) was 45.5 µM, the TGI (IGROV1 ovarian) was 25.2 µM and the TGI (OVCAR-5 ovarian) was greater than 100 µM. The TGI (EKVX NSCLC) was 68.6 µM and the TGI (DU-145 prostate) was 45.9 µM.

Work on O=C1/C(=C\c2cccc(Oc3ccccc3)c2)SC(c2ccccc2)N1c1ccc(Cl)cc1 (stereo not drawn) yielded a TGI (LOX IMVI melanoma) greater than 100 µM, a TGI (SK-MEL-28 melanoma) greater than 100 µM and a TGI (M14 melanoma) greater than 100 µM. It also gave a TGI (SR leukemia) greater than 55.9 µM, a TGI (K-562 leukemia) greater than 90.8 µM and a TGI (A498 renal) greater than 100 µM. For the same compound, the TGI (SNB-19 CNS) was greater than 100 µM, the TGI (A549 NSCLC) was greater than 100 µM and the TGI (SNB-75 CNS) was greater than 100 µM. It also gave a TGI (RPMI-8226 leukemia) of 41.9 µM, a TGI (HCC-2998 colon) greater than 100 µM and a TGI (HCT-15 colon) greater than 100 µM. The TGI (OVCAR-8 ovarian) was greater than 100 µM, the TGI (OVCAR-5 ovarian) was greater than 100 µM and the TGI (EKVX NSCLC) was greater than 100 µM. The TGI (DU-145 prostate) was greater than 100 µM.

Compound CCOC(=O)CCC(NC(=O)c1ccc(Nc2nc3cc(C(F)(F)F)ccc3nc2-c2ccccc2)cc1)C(=O)OCC (stereo not drawn) has a TGI (LOX IMVI melanoma) greater than 100 µM, a TGI (SK-MEL-28 melanoma) greater than 100 µM and a TGI (M14 melanoma) greater than 100 µM. For the same compound, the TGI (SR leukemia) was greater than 100 µM, the TGI (K-562 leukemia) was greater than 100 µM and the TGI (A498 renal) was greater than 100 µM. The TGI (SNB-19 CNS) was greater than 100 µM, the TGI (A549 NSCLC) was greater than 100 µM and the TGI (SNB-75 CNS) was greater than 100 µM. It also gave a TGI (RPMI-8226 leukemia) greater than 100 µM, a TGI (HCC-2998 colon) greater than 100 µM and a TGI (HCT-15 colon) greater than 100 µM. The TGI (OVCAR-8 ovarian) was greater than 100 µM, the TGI (IGROV1 ovarian) was greater than 100 µM and the TGI (OVCAR-5 ovarian) was greater than 100 µM. For the same compound, the TGI (EKVX NSCLC) was greater than 100 µM and the TGI (DU-145 prostate) was greater than 100 µM.

Work on CCOC(=O)c1nc2ccc(C(F)(F)F)cc2nc1Oc1ccc(F)cc1 yielded a TGI (LOX IMVI melanoma) greater than 100 µM, a TGI (SK-MEL-28 melanoma) greater than 100 µM and a TGI (M14 melanoma) greater than 100 µM. The TGI (SR leukemia) was greater than 100 µM, the TGI (K-562 leukemia) was greater than 100 µM and the TGI (A498 renal) was greater than 100 µM. It also gave a TGI (SNB-19 CNS) greater than 100 µM, a TGI (SNB-75 CNS) greater than 100 µM and a TGI (RPMI-8226 leukemia) greater than 100 µM. It also gave a TGI (HCC-2998 colon) greater than 100 µM, a TGI (HCT-15 colon) greater than 100 µM and a TGI (OVCAR-8 ovarian) greater than 100 µM. For the same compound, the TGI (IGROV1 ovarian) was greater than 100 µM, the TGI (EKVX NSCLC) was greater than 100 µM and the TGI (DU-145 prostate) was greater than 100 µM.

[N-]=[N+]=Nc1ccc2c(c1)Sc1ccccc1N2CCCCCl showed a TGI (LOX IMVI melanoma) greater than 100 µM, a TGI (SK-MEL-28 melanoma) greater than 100 µM and a TGI (M14 melanoma) greater than 100 µM. For the same compound, the TGI (SR leukemia) was greater than 100 µM, the TGI (K-562 leukemia) was greater than 100 µM and the TGI (A498 renal) was greater than 100 µM. The TGI (SNB-19 CNS) was greater than 100 µM, the TGI (A549 NSCLC) was greater than 100 µM and the TGI (SNB-75 CNS) was greater than 100 µM. It also gave a TGI (RPMI-8226 leukemia) greater than 100 µM, a TGI (HCC-2998 colon) greater than 100 µM and a TGI (HCT-15 colon) greater than 100 µM. It also gave a TGI (OVCAR-8 ovarian) greater than 100 µM, a TGI (IGROV1 ovarian) greater than 100 µM and a TGI (OVCAR-5 ovarian) greater than 100 µM. It also gave a TGI (EKVX NSCLC) greater than 100 µM and a TGI (DU-145 prostate) greater than 100 µM.
